Tests used:
Test in all cases: relative viability (nuclei count vs DMSO), 5 days (fraction); higher = more cells survive
ABC-1 = system: ABC-1
Method in brief: (§1)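 Relative viability was taken as the ratio of nuclei in treated wells to nuclei in vehicle wells. Lung cancer cell lines in 1536-well plates received compounds by pin tool one day after seeding, either one drug alone or a fixed anchor-drug dose plus five library-drug doses (not always all listed) in √10 steps. Nuclei were counted on 4× images after 5 days of treatment, and values are medians of duplicate plates.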

COR-L23 = system: COR-L23
Method in brief: as §1

ChaGo-K-1 = system: ChaGo-K-1
Method in brief: as §1

EMC-BAC-2 = system: EMC-BAC-2
Method in brief: as §1

HARA = system: HARA
Method in brief: as §1

HCC-15 = system: HCC-15
Method in brief: as §1

HOP-62 = system: HOP-62
Method in brief: as §1

LC-2-ad = system: LC-2-ad
Method in brief: as §1

NCI-H1395 = system: NCI-H1395
Method in brief: as §1

NCI-H1793 = system: NCI-H1793
Method in brief: as §1

NCI-H1944 = system: NCI-H1944
Method in brief: as §1

NCI-H1993 = system: NCI-H1993
Method in brief: as §1

NCI-H2023 = system: NCI-H2023
Method in brief: as §1

NCI-H2126 = system: NCI-H2126
Method in brief: as §1

NCI-H2228 = system: NCI-H2228
Method in brief: as §1

NCI-H23 = system: NCI-H23
Method in brief: as §1

NCI-H2405 = system: NCI-H2405
Method in brief: as §1

NCI-H358 = system: NCI-H358
Method in brief: as §1

NCI-H838 = system: NCI-H838
Method in brief: as §1

SK-LU-1 = system: SK-LU-1
Method in brief: as §1

## CCN(CC)CCCCNc1ncc2cc(-c3cc(OC)cc(OC)c3)c(NC(=O)NC(C)(C)C)nc2n1 + CCNC(=O)c1noc(-c2cc(C(C)C)c(O)cc2O)c1-c1ccc(CN2CCOCC2)cc1 [Luminespib] (partner 0.01 µM)
ABC-1; first compound 0.01 µM
  relative viability: 0.731
ABC-1; first compound 0.03162 µM
  relative viability: 0.405
ABC-1; first compound 0.1 µM
  relative viability: 0.832
ABC-1; first compound 0.3162 µM
  relative viability: 0.416
ABC-1; first compound 1 µM
  relative viability: 0.693
COR-L23; first compound 0.01 µM
  relative viability: 0.799
COR-L23; first compound 0.03162 µM
  relative viability: 0.707
COR-L23; first compound 0.1 µM
  relative viability: 0.955
COR-L23; first compound 0.3162 µM
  relative viability: 1.03
COR-L23; first compound 1 µM
  relative viability: 0.639
ChaGo-K-1; first compound 0.01 µM
  relative viability: 0.618
ChaGo-K-1; first compound 0.03162 µM
  relative viability: 0.638
ChaGo-K-1; first compound 0.1 µM
  relative viability: 0.727
ChaGo-K-1; first compound 0.3162 µM
  relative viability: 0.679
ChaGo-K-1; first compound 1 µM
  relative viability: 0.811
EMC-BAC-2; first compound 0.01 µM
  relative viability: 1.27
EMC-BAC-2; first compound 0.03162 µM
  relative viability: 1.16
EMC-BAC-2; first compound 0.1 µM
  relative viability: 1.08
EMC-BAC-2; first compound 0.3162 µM
  relative viability: 1.35
EMC-BAC-2; first compound 1 µM
  relative viability: 1.05
HARA; first compound 0.01 µM
  relative viability: 1.11
HARA; first compound 0.03162 µM
  relative viability: 0.896
HARA; first compound 0.1 µM
  relative viability: 0.948
HARA; first compound 0.3162 µM
  relative viability: 0.904
HARA; first compound 1 µM
  relative viability: 0.439
HCC-15; first compound 0.01 µM
  relative viability: 0.251
HCC-15; first compound 0.03162 µM
  relative viability: 0.257
HCC-15; first compound 0.1 µM
  relative viability: 0.348
HCC-15; first compound 0.3162 µM
  relative viability: 0.422
HCC-15; first compound 1 µM
  relative viability: 0.266
HOP-62; first compound 0.01 µM
  relative viability: 1.12
HOP-62; first compound 0.03162 µM
  relative viability: 0.986
HOP-62; first compound 0.1 µM
  relative viability: 1.02
HOP-62; first compound 0.3162 µM
  relative viability: 0.961
HOP-62; first compound 1 µM
  relative viability: 0.888
LC-2-ad; first compound 0.01 µM
  relative viability: 0.971
LC-2-ad; first compound 0.03162 µM
  relative viability: 1.12
LC-2-ad; first compound 0.1 µM
  relative viability: 1.21
LC-2-ad; first compound 0.3162 µM
  relative viability: 1.04
LC-2-ad; first compound 1 µM
  relative viability: 1.11
NCI-H1395; first compound 0.01 µM
  relative viability: 0.659
NCI-H1395; first compound 0.03162 µM
  relative viability: 0.878
NCI-H1395; first compound 0.1 µM
  relative viability: 0.662
NCI-H1395; first compound 0.3162 µM
  relative viability: 0.65
NCI-H1395; first compound 1 µM
  relative viability: 0.48
NCI-H1793; first compound 0.01 µM
  relative viability: 0.345
NCI-H1793; first compound 0.03162 µM
  relative viability: 0.198
NCI-H1793; first compound 0.1 µM
  relative viability: 0.166
NCI-H1793; first compound 0.3162 µM
  relative viability: 0.157
NCI-H1793; first compound 1 µM
  relative viability: 0.156
NCI-H1944; first compound 0.01 µM
  relative viability: 0.705
NCI-H1944; first compound 0.03162 µM
  relative viability: 0.747
NCI-H1944; first compound 0.1 µM
  relative viability: 0.762
NCI-H1944; first compound 0.3162 µM
  relative viability: 0.822
NCI-H1944; first compound 1 µM
  relative viability: 0.603
NCI-H1993; first compound 0.01 µM
  relative viability: 0.401
NCI-H1993; first compound 0.03162 µM
  relative viability: 0.715
NCI-H1993; first compound 0.1 µM
  relative viability: 0.771
NCI-H1993; first compound 0.3162 µM
  relative viability: 0.97
NCI-H1993; first compound 1 µM
  relative viability: 0.666
NCI-H2023; first compound 0.01 µM
  relative viability: 0.663
NCI-H2023; first compound 0.03162 µM
  relative viability: 1.05
NCI-H2023; first compound 0.1 µM
  relative viability: 0.745
NCI-H2023; first compound 0.3162 µM
  relative viability: 0.833
NCI-H2023; first compound 1 µM
  relative viability: 0.545
NCI-H2126; first compound 0.01 µM
  relative viability: 0.985
NCI-H2126; first compound 0.03162 µM
  relative viability: 0.876
NCI-H2126; first compound 0.1 µM
  relative viability: 0.953
NCI-H2126; first compound 0.3162 µM
  relative viability: 0.92
NCI-H2126; first compound 1 µM
  relative viability: 0.898
NCI-H2228; first compound 0.01 µM
  relative viability: 0.131
NCI-H2228; first compound 0.03162 µM
  relative viability: 0.109
NCI-H2228; first compound 0.1 µM
  relative viability: 0.173
NCI-H2228; first compound 0.3162 µM
  relative viability: 0.247
NCI-H2228; first compound 1 µM
  relative viability: 0.142
NCI-H23; first compound 0.01 µM
  relative viability: 0.214
NCI-H23; first compound 0.03162 µM
  relative viability: 0.203
NCI-H23; first compound 0.1 µM
  relative viability: 0.241
NCI-H23; first compound 0.3162 µM
  relative viability: 0.202
NCI-H23; first compound 1 µM
  relative viability: 0.205
NCI-H2405; first compound 0.01 µM
  relative viability: 0.649
NCI-H2405; first compound 0.03162 µM
  relative viability: 0.644
NCI-H2405; first compound 0.1 µM
  relative viability: 0.76
NCI-H2405; first compound 0.3162 µM
  relative viability: 0.654
NCI-H2405; first compound 1 µM
  relative viability: 0.684
NCI-H358; first compound 0.01 µM
  relative viability: 0.429
NCI-H358; first compound 0.03162 µM
  relative viability: 0.193
NCI-H358; first compound 0.1 µM
  relative viability: 0.348
NCI-H358; first compound 0.3162 µM
  relative viability: 0.503
NCI-H358; first compound 1 µM
  relative viability: 0.347
NCI-H838; first compound 0.01 µM
  relative viability: 0.344
NCI-H838; first compound 0.03162 µM
  relative viability: 0.244
NCI-H838; first compound 0.1 µM
  relative viability: 0.304
NCI-H838; first compound 0.3162 µM
  relative viability: 0.304
NCI-H838; first compound 1 µM
  relative viability: 0.3
SK-LU-1; first compound 0.01 µM
  relative viability: 0.199
SK-LU-1; first compound 0.03162 µM
  relative viability: 0.197
SK-LU-1; first compound 0.1 µM
  relative viability: 0.197
SK-LU-1; first compound 0.3162 µM
  relative viability: 0.236
SK-LU-1; first compound 1 µM
  relative viability: 0.168

From the supplement of paper PMC10307832
